Measured values: patent US9273067B2, “Pyrazolopyrimidine macrocycles as inhibitors of human immunodeficiency virus replication” (BRISTOL-MYERS SQUIBB COMPANY, priority 2014, dated 2016)
Where two headings read alike, the source gives them in different places.

System: NL-RLuc virus (recombinant HIV NL4-3 with Renilla Luciferase) in MT-2 cells
Test: Inhibition of HIV replication (NL-RLuc virus in MT-2 cells, luciferase readout)
Format: cell-based, human immunodeficiency virus (HIV)
From the text: Inhibition of HIV Replication:
A recombinant NL-RLuc proviral clone was constructed in which a section of the nef gene from NL4-3 was replaced with the Renilla Luciferase gene. This virus is fully infectious and can undergo multiple cycles of replication in cell culture. In addition, the luciferous reporter provides a simple and easy method for quantitating the extent of virus growth and consequently, the antiviral activity of test compounds. The plasmid pNLRLuc contains the proviral NL-Rluc DNA cloned into pUC 18 at the PvuII site. The NL-RLuc virus was prepared by transfection of 293T cells with the plasmid pNLRLuc. Transfections were performed using the LipofectAMINE PLUS kit from Invitrogen (Carlsbad, Calif.) according to the manufacturer and the virus generated was titered in MT-2 cells. For susceptibility analyses, the titrated virus was used to infect MT-2 cells in the presence of compound, and after 5 days of incubation, cells were processed and quantitated for virus growth by the amount of expressed luciferase. Assay media was RPMI 1640 supplemented with 10% heat inactivated fetal bovine serum (FBS), 100 units/ml penicillin G/100 units/ml streptomycin, 10 mM HEPES buffer pH 7.55 and 2 mM L-glutamine. The results from at least 2 experiments were used to calculate the EC50 values. Luciferase was quantitated using the Dual Luciferase kit from Promega (Madison, Wis.). Susceptibility of viruses to compounds was determined by incubation in the presence of serial dilutions of the compound. The 50% effective concentration (EC50) was calculated by using the exponential form of the median effect equation where (Fa)=1/[1+(ED50/drug conc.)^m] (Johnson V A, Byington R T. Infectivity Assay. In Techniques in HIV Research. ed. Aldovini A, Walker B D. 71-76. New York: Stockton Press. 1990).

[1] = NL-RLuc virus infecting MT-2 cells, 5 days of incubation, 10% FBS, luciferase quantitation, at least 2 experiments, read-out: EC50
[2] = MT2, 120 h, NL-RLuc virus infecting MT-2 cells, 5 days of incubation, 10% FBS, luciferase quantitation, at least 2 experiments

| Molecule | EC50 [1] | EC50 [2] | also measured |
| --- | --- | --- | --- |
| (2S)-2-(tert-Butoxy)-2-[4,22-dimethyl-15-(propan-2-yl)-16,21-dioxa-1,5,7,8,11,12,13-heptaazapentacyclo[20.2.2.1^6,^9.1^11,^14.0^2,^7]octacosa-2,4,6(28),8,12,14(27),19-heptaen-3-yl]acetic acid [Example 9] | 93 nM |  |  |
| Cc1nc2cc3nn2c(c1[C@H](OC(C)(C)C)C(=O)O)N1CCC(C)(CC1)OCC=CCOc1ccccc1CC(=O)NC3 [Example 16, (2S)-2-(tert-Butoxy)-2-[4,26-dimethyl-12-oxo-20,25-dioxa-1,5,7,8,11-pentaazapentacyclo[24.2.2.1^6,^9.1^2,^7.0^14,^19]hentriaconta-2,4,6(31),8,14(19),15,17,22-octaen-3-yl]acetic acid] | 21 nM |  |  |
| Cc1nc2cc3nn2c(c1[C@H](OC(C)(C)C)C(=O)O)N1CCC(C)(CC1)OCCCCOC(C(C)C)c1cn(nn1)C3 (stereo partly drawn) [Example 10, (2S)-2-(tert-Butoxy)-2-[4,22-dimethyl-15-(propan-2-yl)-16,21-dioxa-1,5,7,8,11,12,13-heptaazapentacyclo[20.2.2.1^6,^9.1^11,^14.0^2,^7]octacosa-2,4,6(28),8,12,14(27)-hexaen-3-yl]acetic acid] |  | 251 nM |  |
| Cc1nc2cc3nn2c(c1[C@H](OC(C)(C)C)C(=O)O)N1CCC(C)(CC1)OCC=CCc1ccccc1C(=O)NC3 [Example 14, (2S)-2-(tert-Butoxy)-2-[4,24-dimethyl-12-oxo-23-oxa-1,5,7,8,11-pentaazapentacyclo[22.2.2.1^6,^9.0^2,^7.0^13,^18]nonacosa-2,4,6(29),8,13(18),14,16,20-octaen-3-yl]acetic acid] |  | 45 nM |  |
| Cc1cc(CN2CCCCOC3(C)CCN(CC3)c3c([C@H](OC(C)(C)C)C(=O)O)c(C)nc4cc(nn34)CNC(=O)C2=O)ccc1F [Example 19, (2S)-2-(tert-Butoxy)-2-{14-[(4-fluoro-3-methylphenyl)methyl]-4,20-dimethyl-12,13-dioxo-19-oxa-1,5,7,8,11,14-hexaazatetracyclo[18.2.2.1^6,^9.0^2,^7]pentacosa-2,4,6(25),8-tetraen-3-yl}acetic acid] |  | 34 nM |  |
| Cc1nc2cc3nn2c(c1[C@H](OC(C)(C)C)C(=O)O)N1CCC(C)(CC1)OCCCCOCc1ccccc1-c1cn(nn1)C3 [Example 5, (2S)-2-(tert-Butoxy)-2-{4,28-dimethyl-22,27-dioxa-1,5,7,8,11,12,13-heptaazahexacyclo[26.2.2.1^6,^9.1^11,^14.0^2,^7.0^15,^20]tetratriaconta-2,4,6(34),8,12,14(33),15(20),16,18-nonaen-3-yl}acetic acid] |  | 45 nM |  |
| Cc1nc2cc3nn2c(c1[C@H](OC(C)(C)C)C(=O)O)N1CCC(C)(CC1)OCCCCc1cc(F)c(F)cc1COC3 [Example 68, (2S)-2-(tert-Butoxy)-2-{15,16-difluoro-4,24-dimethyl-11,23-dioxa-1,5,7,8-tetraazapentacyclo[22.2.2.1^6,^9.0^2,^7.0^13,^18]nonacosa-2,4,6(29),8,13(18),14,16-heptaen-3-yl}acetic acid] |  | 1 nM |  |
| Cc1nc2cc3nn2c(c1[C@H](OC(C)(C)C)C(=O)O)N1CCC(C)(CC1)OCCC=COC(C)(C)c1cn(nn1)C3 [Example 4, (2S)-2-(tert-Butoxy)-2-[4,15,15,22-tetramethyl-16,21-dioxa-1,5,7,8,11,12,13-heptaazapentacyclo[20.2.2.1^6,^9.1^11,^14.0^2,^7]octacosa-2,4,6(28),8,12,14(27),17-heptaen-3-yl]acetic acid] | 249 nM |  |  |
| Cc1nc2cc3nn2c(c1[C@H](OC(C)(C)C)C(=O)O)N1CCC(C)(CC1)OCCCCCc1cccc(c1)COC3 [Example 59, (2S)-2-(tert-Butoxy)-2-{4,24-dimethyl-11,23-dioxa-1,5,7,8-tetraazapentacyclo[22.2.2.1^6,^9.1^13,^17.0^2,^7]triaconta-2,4,6(30),8,13(29),14,16-heptaen-3-yl}acetic acid] |  | 16 nM |  |
| Cc1nc2cc3nn2c(c1[C@H](OC(C)(C)C)C(=O)O)N1CCC(C)(CC1)OCCCCOC(C(C)C)c1cn(nn1)C3 (stereo partly drawn) [Example 11, (2S)-2-(tert-Butoxy)-2-[4,22-dimethyl-15-(propan-2-yl)-16,21-dioxa-1,5,7,8,11,12,13-heptaazapentacyclo[20.2.2.1^6,^9.1^11,^14.0^2,^7]octacosa-2,4,6(28),8,12,14(27)-hexaen-3-yl]acetic acid] |  |  | EC50 ({}): 204 nM |
| CCCC1CCCCOC2(C)CCN(CC2)c2c([C@H](OC(C)(C)C)C(=O)O)c(C)nc3cc(nn23)COCc2ccc(C)cc2O1 (stereo partly drawn) [Example 45, (2S)-2-(tert-butoxy)-2-{4,16,26-trimethyl-20-propyl-11,19,25-trioxa-1,5,7,8-tetraazapentacyclo[24.2.2.1^6,^9.0^2,^7.0^13,^18]hentriaconta-2,4,6(31),8,13(18),14,16-heptane-3-yl}acetic acid] |  |  | EC50 ({}): 35 nM |
| Cc1nc2cc3nn2c(c1[C@H](OC(C)(C)C)C(=O)O)N1CCC(C)(CC1)OCCCC[C@H](C)Oc1cc(F)c(F)cc1CCC3 [Example 43, (2S)-2-(tert-Butoxy)-2-[(20S)-15,16-difluoro-4,20,26-trimethyl-19,25-dioxa-1,5,7,8-tetraazapentacyclo[24.2.2.1^6,^9.0^2,^7.0^13,^18]hentriaconta-2,4,6(31),8,13(18),14,16-heptaen-3-yl]acetic acid] |  | 1 nM |  |
| Cc1nc2cc3nn2c(c1[C@H](OC(C)(C)C)C(=O)O)N1CCC(C)(CC1)O/C=C\CCc1ccccc1OC3 [Example 21, (2S)-2-(tert-Butoxy)-2-[(20Z)-4,23-dimethyl-11,22-dioxa-1,5,7,8-tetraazapentacyclo[21.2.2.1^6,^9.1^2,^7.0^12,^17]octacosa-2,4,6(28),8,12(17),13,15,20-octaen-3-yl]acetic acid] | 646 nM |  |  |
| Cc1nc2cc3nn2c(c1[C@H](OC(C)(C)C)C(=O)O)N1CCC(C)(CC1)OCC=CC[C@H](C)Oc1cc(F)c(F)cc1COC3 [Example 33, (2S)-2-(tert-Butoxy)-2-[(20S)-15,16-difluoro-4,20,26-trimethyl-11,19,25-trioxa-1,5,7,8-tetraazapentacyclo[24.2.2.1^6,^9.0^2,^7.0^13,^18]hentriaconta-2,4,6(31),8,13,15,17,22-octaen-3-yl]acetic acid] |  | 6 nM |  |
| Cc1nc2cc3nn2c(c1[C@H](OC(C)(C)C)C(=O)O)N1CCC(C)(CC1)OCCCCCc1cc(F)ccc1CN(C1CC1)C3 [Example 62, (2S)-2-(tert-Butoxy)-2-{11-cyclopropyl-16-fluoro-4,25-dimethyl-24-oxa-1,5,7,8,11-pentaazapentacyclo[23.2.2.1^6,^9.0^2,^7.0^13,^18]triaconta-2,4,6(30),8,13(18),14,16-heptaen-3-yl}acetic acid] |  | 41 nM |  |
| Cc1nc2cc3nn2c(c1[C@H](OC(C)(C)C)C(=O)O)N1CCC(C)(CC1)OCCCC[C@@H](COCc1ccccc1)OC3 [Example 48, (2S)-2-[(12S)-12-[(benzyloxy)methyl]-4,18-dimethyl-11,17-dioxa-1,5,7,8-tetraazatetracyclo[16.2.2.1^6,^9.0^2,^7]tricosa-2,4,6(23),8-tetraen-3-yl]-2-(tert-butoxy)acetic acid] |  | 111 nM |  |
| Cc1nc2cc3nn2c(c1[C@H](OC(C)(C)C)C(=O)O)N1CCC(C)(CC1)OCCCC[C@H](C)Oc1cc(F)ccc1CCC3 [Example 40, (2S)-2-(tert-Butoxy)-2-[(20S)-16-fluoro-4,20,26-trimethyl-19,25-dioxa-1,5,7,8-tetraazapentacyclo[24.2.2.1^6,^9.0^2,^7.0^13,^18]hentriaconta-2,4,6(31),8,13(18),14,16-heptaen-3-yl]acetic acid] | 31 nM |  |  |
| Cc1nc2cc3nn2c(c1[C@H](OC(C)(C)C)C(=O)O)N1CCC(C)(CC1)OC/C=C\Cc1ccccc1OC3 [Example 22, (2S)-2-(tert-Butoxy)-2-[(19Z)-4,23-dimethyl-11,22-dioxa-1,5,7,8-tetraazapentacyclo[21.2.2.1^6,^9.1^2,^7.0^12,^17]octacosa-2,4,6(28),8,12(17),13,15,19-octaen-3-yl]acetic acid] | 141 nM |  |  |
| Cc1ccc2c(c1)O[C@@H](C)CCCCOC1(C)CCN(CC1)c1c([C@H](OC(C)(C)C)C(=O)O)c(C)nc3cc(nn13)CO[C@@H]2C (single isomer, unassigned) [Example 56] |  | 8 nM |  |
| CCCC1CCCCOC2(C)CCN(CC2)c2c([C@H](OC(C)(C)C)C(=O)O)c(C)nc3cc(nn23)COCc2cc(F)ccc2O1 (stereo partly drawn) [Example 50, (2S)-2-(tert-butoxy)-2-{15-fluoro-4,26-dimethyl-20-propyl-11,19,25-trioxa-1,5,7,8-tetraazapentacyclo[24.2.2.1^6,^9.0^2,^7.0^13,^18]hentriaconta-2,4,6(31),8,13(18),14,16-heptaen-3-yl}acetic acid] |  |  | EC50 ({}): 19 nM |
